Reference: the kinase profiling compilation of Christmann-Franck et al. (2016)

Columns and labels:
Assay in all cases: radiometric filter-binding kinase assay, Kinase HotSpot
Details in all cases: compound 0.5 µM; ATP 10 µM
HIPK2 (human) = HIPK2 (human) (UniProt Q9H2X6)
GRK6 (human) = GRK6 (human) (UniProt P43250)
AURKA (human) = AURKA (human) (UniProt O14965)
MAPK9 (human) = MAPK9 (human) (UniProt P45984)
MERTK (human) = MERTK (human) (UniProt Q12866)
MAP3K8 (human) = MAP3K8 (human) (UniProt P41279)
CSNK1G3 (human) = CSNK1G3 (human) (UniProt Q9Y6M4)
PRKCA (human) = PRKCA (human) (UniProt P17252)
KDR (human) = KDR (human) (UniProt P35968)
PIM2 (human) = PIM2 (human) (UniProt Q9P1W9)
STK33 (human) = STK33 (human) (UniProt Q9BYT3)
NLK (human) = NLK (human) (UniProt Q9UBE8)
JAK3 JH1 JH2 (human) = JAK3 JH1 JH2 (human) (UniProt P52333)
CSNK1A1 (human) = CSNK1A1 (human) (UniProt P48729)
Sequence of CSNK1A1 (human) (P48729 whole entry, looked up): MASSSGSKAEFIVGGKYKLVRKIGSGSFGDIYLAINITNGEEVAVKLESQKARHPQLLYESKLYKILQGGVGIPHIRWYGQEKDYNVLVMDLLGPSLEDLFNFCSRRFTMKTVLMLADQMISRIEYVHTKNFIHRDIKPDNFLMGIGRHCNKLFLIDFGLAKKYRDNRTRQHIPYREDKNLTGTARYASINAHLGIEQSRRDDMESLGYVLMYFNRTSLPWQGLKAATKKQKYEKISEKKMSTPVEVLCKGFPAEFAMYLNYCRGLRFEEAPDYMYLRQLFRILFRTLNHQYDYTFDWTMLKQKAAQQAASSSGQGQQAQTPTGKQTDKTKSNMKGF

RIPK2 (human) = RIPK2 (human) (UniProt O43353)
CDC42BPB (human) = CDC42BPB (human) (UniProt Q9Y5S2)
EPHB3 (human) = EPHB3 (human) (UniProt P54753)
CDK9 CCNT1 (human) = CDK9 CCNT1 (human) (UniProt P50750+O60563)
NTRK1 (human) = NTRK1 (human) (UniProt P04629)
NUAK1 (human) = NUAK1 (human) (UniProt O60285)
MARK2 (human) = MARK2 (human) (UniProt Q7KZI7)
CDK2 CCNA2 (human) = CDK2 CCNA2 (human) (UniProt P24941+P20248)
MAPKAPK5 (human) = MAPKAPK5 (human) (UniProt Q8IW41)
GRK4 (human) = GRK4 (human) (UniProt P32298)
RPS6KA1 KD1 KD2 (human) = RPS6KA1 KD1 KD2 (human) (UniProt Q15418)
ABL2 (human) = ABL2 (human) (UniProt P42684)
Sequence of ABL2 (human) (P42684 whole entry, looked up): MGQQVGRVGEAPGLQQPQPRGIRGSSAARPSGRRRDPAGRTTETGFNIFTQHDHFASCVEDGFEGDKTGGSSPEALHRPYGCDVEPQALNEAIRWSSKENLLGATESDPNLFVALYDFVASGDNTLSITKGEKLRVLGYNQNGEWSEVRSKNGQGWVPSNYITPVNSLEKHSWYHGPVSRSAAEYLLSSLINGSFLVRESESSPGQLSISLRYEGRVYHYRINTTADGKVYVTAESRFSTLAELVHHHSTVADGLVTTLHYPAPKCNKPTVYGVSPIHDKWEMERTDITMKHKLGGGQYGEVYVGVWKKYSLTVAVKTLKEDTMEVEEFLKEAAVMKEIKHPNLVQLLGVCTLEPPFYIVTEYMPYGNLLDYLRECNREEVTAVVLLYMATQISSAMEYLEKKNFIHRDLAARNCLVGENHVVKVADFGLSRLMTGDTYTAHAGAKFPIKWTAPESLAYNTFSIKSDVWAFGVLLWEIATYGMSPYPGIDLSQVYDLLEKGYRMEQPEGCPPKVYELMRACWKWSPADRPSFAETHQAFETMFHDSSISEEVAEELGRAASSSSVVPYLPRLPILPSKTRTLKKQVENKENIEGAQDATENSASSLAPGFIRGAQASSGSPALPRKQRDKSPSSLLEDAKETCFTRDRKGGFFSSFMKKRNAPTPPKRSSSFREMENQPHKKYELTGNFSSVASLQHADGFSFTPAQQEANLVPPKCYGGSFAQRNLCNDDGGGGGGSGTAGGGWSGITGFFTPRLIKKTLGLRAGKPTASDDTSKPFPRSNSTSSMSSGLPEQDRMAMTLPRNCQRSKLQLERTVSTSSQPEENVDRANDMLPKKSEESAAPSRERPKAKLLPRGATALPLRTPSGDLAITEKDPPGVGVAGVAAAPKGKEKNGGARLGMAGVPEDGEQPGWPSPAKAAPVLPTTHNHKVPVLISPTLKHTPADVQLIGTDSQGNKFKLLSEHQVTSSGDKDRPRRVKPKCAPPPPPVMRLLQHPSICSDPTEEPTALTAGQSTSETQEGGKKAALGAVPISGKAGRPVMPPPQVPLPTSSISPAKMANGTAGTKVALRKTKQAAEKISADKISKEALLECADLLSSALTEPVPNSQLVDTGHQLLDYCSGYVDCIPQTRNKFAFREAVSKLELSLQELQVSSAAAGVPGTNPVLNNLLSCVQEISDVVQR

CSNK1E (human) = CSNK1E (human) (UniProt P49674)
STK11 (human) = STK11 (human) (UniProt Q15831)
EPHA4 (human) = EPHA4 (human) (UniProt P54764)
STK3 (human) = STK3 (human) (UniProt Q13188)
MYLK (human) = MYLK (human) (UniProt Q15746)
NEK3 (human) = NEK3 (human) (UniProt P51956)
ADRBK2 (human) = ADRBK2 (human) (UniProt P35626)
Sequence of ADRBK2 (human) (P35626 whole entry, looked up): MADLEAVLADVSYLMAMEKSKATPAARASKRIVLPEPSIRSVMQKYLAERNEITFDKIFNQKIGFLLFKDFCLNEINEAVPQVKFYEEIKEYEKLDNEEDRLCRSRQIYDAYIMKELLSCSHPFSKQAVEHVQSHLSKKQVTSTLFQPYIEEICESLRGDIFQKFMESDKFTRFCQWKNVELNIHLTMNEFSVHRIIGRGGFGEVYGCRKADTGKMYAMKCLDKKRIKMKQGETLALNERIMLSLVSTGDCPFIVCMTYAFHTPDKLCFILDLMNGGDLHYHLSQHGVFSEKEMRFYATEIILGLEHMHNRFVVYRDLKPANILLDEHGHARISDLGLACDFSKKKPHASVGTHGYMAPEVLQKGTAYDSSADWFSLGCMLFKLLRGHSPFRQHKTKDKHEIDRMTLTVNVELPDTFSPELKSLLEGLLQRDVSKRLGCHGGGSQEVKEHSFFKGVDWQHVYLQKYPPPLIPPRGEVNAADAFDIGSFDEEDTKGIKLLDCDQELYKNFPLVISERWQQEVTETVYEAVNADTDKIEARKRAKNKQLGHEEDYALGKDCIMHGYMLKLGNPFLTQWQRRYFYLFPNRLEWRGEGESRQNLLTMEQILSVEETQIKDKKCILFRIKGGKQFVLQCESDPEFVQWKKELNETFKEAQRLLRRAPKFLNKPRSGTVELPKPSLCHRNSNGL

NUAK2 (human) = NUAK2 (human) (UniProt Q9H093)
Sequence of NUAK2 (human) (Q9H093 whole entry, looked up): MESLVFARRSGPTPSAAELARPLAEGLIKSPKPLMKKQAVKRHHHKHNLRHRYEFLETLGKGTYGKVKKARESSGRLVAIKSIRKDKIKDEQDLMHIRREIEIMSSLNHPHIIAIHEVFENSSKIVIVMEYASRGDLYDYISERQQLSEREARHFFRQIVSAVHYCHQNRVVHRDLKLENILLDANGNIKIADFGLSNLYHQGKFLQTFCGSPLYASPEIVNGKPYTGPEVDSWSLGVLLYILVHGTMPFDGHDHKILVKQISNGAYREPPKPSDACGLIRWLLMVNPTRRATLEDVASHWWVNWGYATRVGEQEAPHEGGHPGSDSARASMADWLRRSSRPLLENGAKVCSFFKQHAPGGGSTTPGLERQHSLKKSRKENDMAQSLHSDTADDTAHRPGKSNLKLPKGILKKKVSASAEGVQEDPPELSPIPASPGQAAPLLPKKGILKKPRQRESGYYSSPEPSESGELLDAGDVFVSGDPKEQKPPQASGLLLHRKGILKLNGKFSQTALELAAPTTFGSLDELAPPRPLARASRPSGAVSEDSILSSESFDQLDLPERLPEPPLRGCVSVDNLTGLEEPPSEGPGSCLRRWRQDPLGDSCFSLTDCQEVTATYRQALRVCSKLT

BRSK1 (human) = BRSK1 (human) (UniProt Q8TDC3)
EPHA8 (human) = EPHA8 (human) (UniProt P29322)
Sequence of EPHA8 (human) (P29322 whole entry, looked up): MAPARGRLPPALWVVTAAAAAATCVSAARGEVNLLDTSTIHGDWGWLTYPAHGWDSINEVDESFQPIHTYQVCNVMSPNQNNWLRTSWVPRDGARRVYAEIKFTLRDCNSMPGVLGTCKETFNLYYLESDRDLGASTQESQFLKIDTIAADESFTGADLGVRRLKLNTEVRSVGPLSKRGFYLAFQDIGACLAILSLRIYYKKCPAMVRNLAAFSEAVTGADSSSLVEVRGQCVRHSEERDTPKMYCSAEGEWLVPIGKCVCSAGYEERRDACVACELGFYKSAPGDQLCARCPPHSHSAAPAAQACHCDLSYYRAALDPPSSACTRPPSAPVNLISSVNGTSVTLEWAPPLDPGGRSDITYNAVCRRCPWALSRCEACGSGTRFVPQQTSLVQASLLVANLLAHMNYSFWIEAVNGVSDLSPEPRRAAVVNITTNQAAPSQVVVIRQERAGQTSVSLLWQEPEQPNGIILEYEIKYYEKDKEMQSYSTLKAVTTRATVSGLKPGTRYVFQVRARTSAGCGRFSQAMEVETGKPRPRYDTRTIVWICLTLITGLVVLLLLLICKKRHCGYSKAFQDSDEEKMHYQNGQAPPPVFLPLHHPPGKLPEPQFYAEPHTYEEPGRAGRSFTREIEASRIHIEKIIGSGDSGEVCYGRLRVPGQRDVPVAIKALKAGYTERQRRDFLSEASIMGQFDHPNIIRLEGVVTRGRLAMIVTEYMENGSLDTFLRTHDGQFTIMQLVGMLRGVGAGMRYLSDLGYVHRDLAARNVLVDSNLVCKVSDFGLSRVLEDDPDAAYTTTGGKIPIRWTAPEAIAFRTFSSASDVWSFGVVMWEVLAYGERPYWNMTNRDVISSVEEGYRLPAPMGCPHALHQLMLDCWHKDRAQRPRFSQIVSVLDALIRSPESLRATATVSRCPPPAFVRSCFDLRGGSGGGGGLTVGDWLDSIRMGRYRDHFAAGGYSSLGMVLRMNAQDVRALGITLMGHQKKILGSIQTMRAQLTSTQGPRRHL

TXK (human) = TXK (human) (UniProt P42681)
FLT1 (human) = FLT1 (human) (UniProt P17948)
PHKG2 (human) = PHKG2 (human) (UniProt P15735)
MET (human) = MET (human) (UniProt P08581)
ACVR1B (human) = ACVR1B (human) (UniProt P36896)
TAOK2 (human) = TAOK2 (human) (UniProt Q9UL54)

Sequence of HIPK2 (human) (Q9H2X6 whole entry, looked up): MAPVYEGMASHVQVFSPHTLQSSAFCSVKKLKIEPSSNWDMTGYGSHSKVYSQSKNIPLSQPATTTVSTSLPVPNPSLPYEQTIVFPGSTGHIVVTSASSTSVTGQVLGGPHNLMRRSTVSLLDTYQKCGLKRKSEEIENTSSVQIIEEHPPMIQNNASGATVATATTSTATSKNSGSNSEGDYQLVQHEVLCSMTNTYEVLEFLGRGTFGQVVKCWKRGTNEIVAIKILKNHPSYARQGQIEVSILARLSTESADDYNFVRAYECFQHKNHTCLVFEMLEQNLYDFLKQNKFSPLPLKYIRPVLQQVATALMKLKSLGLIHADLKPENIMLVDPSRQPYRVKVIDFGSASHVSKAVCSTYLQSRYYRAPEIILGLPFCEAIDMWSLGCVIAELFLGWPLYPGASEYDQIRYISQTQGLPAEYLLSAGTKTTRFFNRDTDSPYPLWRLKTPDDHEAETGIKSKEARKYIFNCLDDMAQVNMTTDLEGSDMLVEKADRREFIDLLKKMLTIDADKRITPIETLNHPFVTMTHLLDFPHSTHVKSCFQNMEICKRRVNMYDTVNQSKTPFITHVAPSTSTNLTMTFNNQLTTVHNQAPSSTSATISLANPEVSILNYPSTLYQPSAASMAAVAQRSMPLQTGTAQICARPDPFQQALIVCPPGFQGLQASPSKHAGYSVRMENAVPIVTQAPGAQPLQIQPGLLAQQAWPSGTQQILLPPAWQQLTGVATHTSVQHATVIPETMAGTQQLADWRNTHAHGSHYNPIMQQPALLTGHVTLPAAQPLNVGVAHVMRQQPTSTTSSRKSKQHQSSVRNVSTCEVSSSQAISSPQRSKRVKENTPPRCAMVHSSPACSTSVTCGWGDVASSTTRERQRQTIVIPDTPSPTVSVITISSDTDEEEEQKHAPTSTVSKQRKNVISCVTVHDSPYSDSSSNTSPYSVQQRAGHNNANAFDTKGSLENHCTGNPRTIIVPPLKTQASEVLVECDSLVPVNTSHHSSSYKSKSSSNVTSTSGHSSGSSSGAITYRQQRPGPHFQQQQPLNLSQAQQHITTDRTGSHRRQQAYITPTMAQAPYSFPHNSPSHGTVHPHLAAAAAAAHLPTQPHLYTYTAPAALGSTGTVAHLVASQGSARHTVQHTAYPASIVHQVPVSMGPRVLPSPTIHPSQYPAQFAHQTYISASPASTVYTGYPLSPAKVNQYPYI

Structure (SMILES)	residual activity (HIPK2 (human)) [%]	residual activity (GRK6 (human)) [%]	residual activity (MAPK9 (human)) [%]	residual activity (MERTK (human)) [%]	residual activity (MAP3K8 (human)) [%]	residual activity (PRKCA (human)) [%]	residual activity (KDR (human)) [%]	residual activity (PIM2 (human)) [%]	residual activity (STK33 (human)) [%]	residual activity (NLK (human)) [%]	residual activity (JAK3 JH1 JH2 (human)) [%]	residual activity (CSNK1A1 (human)) [%]	residual activity (RIPK2 (human)) [%]	residual activity (CDC42BPB (human)) [%]	residual activity (EPHB3 (human)) [%]	residual activity (CDK9 CCNT1 (human)) [%]	residual activity (NTRK1 (human)) [%]	residual activity (NUAK1 (human)) [%]	residual activity (CDK2 CCNA2 (human)) [%]	residual activity (MAPKAPK5 (human)) [%]	further results
CC(C)(C)c1nc2c3ccc(F)cc3c3c(=O)[nH]ccc3c2[nH]1	98.7	48.2	31.1	79.4	128	65.6	103	90.8	53.8	26.1	0.445	94.6	34.6	96.8	87.1	100	48.7	3.04	86.2	88.1	residual activity (AURKA (human)): 22.3%; residual activity (CSNK1G3 (human)): 105%; residual activity (MARK2 (human)): 41.5%; residual activity (GRK4 (human)): 74.2%; residual activity (RPS6KA1 KD1 KD2 (human)): 38.6%; residual activity (ABL2 (human)): 90.3%; residual activity (CSNK1E (human)): 85.6%; residual activity (STK11 (human)): 58.4%; residual activity (EPHA4 (human)): 101%; residual activity (STK3 (human)): 5.45%; residual activity (MYLK (human)): 9.03%; residual activity (NEK3 (human)): 74.4%; residual activity (ADRBK2 (human)): 104%; residual activity (NUAK2 (human)): 66%; residual activity (BRSK1 (human)): 15.4%; residual activity (EPHA8 (human)): 105%; residual activity (TXK (human)): 77.1%; residual activity (FLT1 (human)): 92.3%; residual activity (PHKG2 (human)): 57.3%
Nc1nc(Nc2ccc(S(N)(=O)=O)cc2)nn1C(=O)c1c(F)cccc1F	72.8	77.2	93.7	70.2	94.4	55.7	64.6	113	74.4	86	8.5	95.1	77.8	96	98.5	27.6	98.8	3.29	2.21	80.3	residual activity (MET (human)): 75.3%; residual activity (GRK4 (human)): 94.7%; residual activity (ACVR1B (human)): 118%; residual activity (RPS6KA1 KD1 KD2 (human)): 42.1%; residual activity (ABL2 (human)): 53.9%; residual activity (CSNK1E (human)): 96.9%; residual activity (STK11 (human)): 85.8%; residual activity (TAOK2 (human)): 8.92%; residual activity (EPHA4 (human)): 91.3%; residual activity (STK3 (human)): 34.3%; residual activity (MYLK (human)): 80%; residual activity (NEK3 (human)): 92.6%; residual activity (ADRBK2 (human)): 87.2%; residual activity (NUAK2 (human)): 34%; residual activity (BRSK1 (human)): 49.2%; residual activity (EPHA8 (human)): 109%; residual activity (TXK (human)): 95.8%; residual activity (FLT1 (human)): 90.7%; residual activity (PHKG2 (human)): 102%
CCN1/C(=C/C(C)=O)Sc2ccc(OC)cc21	100	103	101	88.6	103	68.7	104	102	57.4	103	103	53	86.3	114	90.3	101	85.7	93.4	89.7	112	residual activity (AURKA (human)): 108%; residual activity (MET (human)): 103%; residual activity (MARK2 (human)): 89.5%; residual activity (GRK4 (human)): 96.2%; residual activity (ACVR1B (human)): 109%; residual activity (RPS6KA1 KD1 KD2 (human)): 94%; residual activity (ABL2 (human)): 96.1%; residual activity (CSNK1E (human)): 60.1%; residual activity (STK11 (human)): 86.6%; residual activity (TAOK2 (human)): 101%; residual activity (EPHA4 (human)): 95.5%; residual activity (MYLK (human)): 93.7%; residual activity (NEK3 (human)): 82.5%; residual activity (ADRBK2 (human)): 82.9%; residual activity (NUAK2 (human)): 107%; residual activity (BRSK1 (human)): 89.4%; residual activity (EPHA8 (human)): 98.5%; residual activity (TXK (human)): 100%; residual activity (FLT1 (human)): 88.4%; residual activity (PHKG2 (human)): 94.6%
